Source: publication PMC10959927, “Platinum iodido drugs show potential anti-tumor activity, affecting cancer cell metabolism and inducing ROS and senescence in gastrointestinal cancer cells” (Communications Biology, 2024)
Values joined by “and” are separate entries in the source; they are usually repeats but may differ in a detail not shown here. Equal entries are not always repeated.

Assays:
NU-Foxn1nu nude mice [1] = test: Plasma biochemistry (renal and liver injury markers) of treated xenograft mice; type: in vivo, mouse; conditions: for BUN / Urea: blood
Procedure: (§1) PANC1 cells were then trypsinized and resuspended in RPMI culture medium with 40% Matrigel (no. 45354234, Corning® Matrigel® Basement Membrane Matrix, LDEV-free, Cultek, Spain) at a concentration of 1 × 10^5 cells per 50 μL, and then 50 μL of the resuspended cells were subcutaneously injected into the right and left flanks of female 8 week-old NU-Foxn1nu nude mice (Janvier Labs, France). Tumor growth and volumes were monitored every 2–3 days for up to 4 weeks with a caliper, and tumor volumes (mm^3) were computed using the formula: 0.5 × D12 × D2, where D1 and D2 are the width or the […] diameter and the length or the smallest diameter of a given tumor, respectively. At the end of the experiment, mice were sacrificed, and tumors extracted, photographed, and weighed. (ii) For xenograft in vivo treatment experiments, 1 × 10^6 PANC1 cells resuspended in RPMI culture medium supplemented with 40% Matrigel (Corning®) were orthotopically injected in the pancreas of female NU-Foxn1nu nude mice (Janvier Labs, France). Approximately 2 months post injection, tumors were excised, cut into identical pieces of ~50 mm^3 and implanted (with RPMI culture medium supplemented with 40% Matrigel® Corning®) subcutaneously into the left and right flanks of 15 8 week-old NU-Foxn1nu nude mice (Janvier, France). […] Control mice were treated with 100 µl of physiological saline (0.9% NaCl). Tumor volumes were determined twice per week by caliper measurements throughout the course of the study as described above. At the indicated end point, mice were sacrificed, weighed, blood was collected in EDTA tubes (Aquisel, Cat no. 107545), urine was collected in 1.5 ml Eppendorf tubes, and tumors were excised, weighed, photographed, and fixed in 4% Paraformaldehyde (Alfa Aesar™).
(§2) Whole blood was analyzed with an Element HT5, Veterinary Hematology Analyzer (Scil animal care company GmbH, Madrid, Spain) and plasma was analyzed at the Analytical Laboratory of the Hospital Fundación Jiménez Díaz. Plasma-EDTA samples were examined for markers of renal (urea, BUN, and creatinine) and liver [bilirubin and GGT (γ-Glutamyltransferase)] injury. Urine was analyzed for protein, creatinine and glucose. Urea, creatinine, and glucose were detected by enzymatic assays, total protein by turbidimetry, and bilirubin and GGT via a colorimetric assay in the Cobas® Roche 701 module (a fully automated, high throughput photometric analyzer for a large array of quantitative and qualitative in vitro tests), following the manufacturer’s instructions.

[2] = tested on: PANC1 xenografted tumors in NU-Foxn1nu nude mice; test: PANC1 xenograft in vivo treatment; parameters: species or system mouse; conditions: for Fold-change in tumor volume vs d0: individual tumors
Procedure: as §1

[3] = tested on: PANC1 cells in NU-Foxn1nu nude mice; test: Xenograft of pre-treated PANC1 cells; type: in vivo, mouse; conditions: for Tumor Growth (mm3): ND: No Detected
Procedure: as §1

C57Bl6 mice [4] = test: Indirect calorimetry analyses (PhenoMaster); type: in vivo, mouse
Procedure: Indirect calorimetry analyses were carried out using a 16-chamber TSE PhenoMaster monitoring system (TSE Systems GmbH, Bad Homburg, Germany). Full access to food and water was continuously available, and intake was monitored using built-in devices located within each cage. Calorimetry measurements were carried out during a period of 72 h, according to animal weight, to exclude changes in body weight that would contribute to differences in energy expenditure measurements. […] Mice were introduced into individual chambers and were on a 12 h light-dark cycle (lights on at 07:00am) during the course of the experiment, with a maintained room temperature of 22 ± 2°C. Oxygen consumption and CO2 release was measured. From these values, respiratory exchange ratio (RER) was determined as VCO2/VO2 and energy expenditure (EE) was calculated as = ([…] + 1.232 x RER) x VO2. Locomotor activity was reported as the average light beam breaks (XT + YT) per min. XT and YT (T = total) were calculated from the sum of the ambulatory and fine movements. Water and food consumption (DRINK and FOOD, respectively, Fig. S8) were also monitored and recorded.

NU-Foxn1nu nude mice [5] = test: Whole blood hematology of treated xenograft mice; type: in vivo, mouse; conditions: for Basophils / Eosinophils / Haemoglobin / Hematocrit / Lymphocytes / MCH / MCHC / MCV / MPV / Monocytes / Neutrophils / RDW-CV: individual mice
Procedure: as §1, §2

NU-Foxn1nu nude mice [6] = test: Urine analysis of treated xenograft mice; type: in vivo, mouse
Procedure: as §1, §2

C57Bl6 mice [7] = test: In vivo safety: weight and Irwin's test after tail vein injection; parameters: species or system mouse; conditions: 1.4 mg/kg tail vein injection, early acute time points
[8] = 17 days of I5 treatment, 1.4 mg/kg r.o. or i.p.
[9] = Intra-Peritoneal group (I5 1.4 mg/kg), d17, single mice, 1.4 mg/kg
[10] = Retro-Orbital group (I5 1.4 mg/kg), d17, single mice, 1.4 mg/kg
[11] = PANC1 xenograft, 1.4 mg/kg r.o.
[12] = Intra-Peritoneal group (I5 1.4 mg/kg), single mice
[13] = Intra-Peritoneal group (I5 1.4 mg/kg), single mice, 1.4 mg/kg
[14] = Retro-Orbital group (I5 1.4 mg/kg), single mice, 1.4 mg/kg

SMILES: CC(C)[NH][Pt@SP3]([I])([I])[NH]C(C)C [I5, trans-[PtI2(isopropylamine)2]]
- adverse effects on plasma blood analyses (NU-Foxn1nu nude mice [1]; [8]): no adverse effects
- GGT (NU-Foxn1nu nude mice [1]; Intra-Peritoneal group (I5 1.4 mg/kg), d17, single mice): < 3 UI/L
- Serum Creatinine (NU-Foxn1nu nude mice [1]; [9]): 0.2 mg/dL and 0.17 mg/dL and 0.22 mg/dL
- GGT (NU-Foxn1nu nude mice [1]; Retro-Orbital group (I5 1.4 mg/kg), d17, single mice): < 3 UI/L
- Serum Creatinine (NU-Foxn1nu nude mice [1]; [10]): 0.17 mg/dL and 0.2 mg/dL and 0.21 mg/dL
- Total Bilirubin (NU-Foxn1nu nude mice [1]; [10]): < 0.15 mg/dL and < 0.21 mg/dL
- BUN (NU-Foxn1nu nude mice [1]; [9]): 19 mg/dL and 18 mg/dL and 16 mg/dL
- Urea (NU-Foxn1nu nude mice [1]; [9]): 40 mg/dL and 39 mg/dL and 38 mg/dL and 35 mg/dL
- BUN (NU-Foxn1nu nude mice [1]; [10]): 16 mg/dL and 19 mg/dL
- Urea (NU-Foxn1nu nude mice [1]; [10]): 40 mg/dL and 34 mg/dL and 35 mg/dL
- Fold-change in tumor volume vs d0 ([2]; IP, 0 days post-treatment initiation): 1
- Fold-change in tumor volume vs d0 ([2]; IP, 3 days post-treatment initiation): 1.05 and 1.45 and 0.79 and 1.51 and 1.63 and 0.95 and 1.1
- Fold-change in tumor volume vs d0 ([2]; IP, 7 days post-treatment initiation): 1.29 and 1.56 and 0.79 and 1.32 and 1.71 and 0.86 and 1.49
- Fold-change in tumor volume vs d0 ([2]; IP, 10 days post-treatment initiation): 1.75 and 2.48 and 0.96 and 2.5 and 2.73 and 1.37 and 2.28
- Fold-change in tumor volume vs d0 ([2]; IP, 14 days post-treatment initiation): 2.21 and 4.16 and 0.85 and 2.92 and 3.98 and 1.35 and 3.75
- Fold-change in tumor volume vs d0 ([2]; IP, 17 days post-treatment initiation): 3.08 and 4.39 and 0.91 and 3.92 and 4.58 and 1.62 and 4.25
- tumor growth ([2]; PANC1 xenograft, 1.4 mg/kg i.p.): reduced tumor growth
- tumor growth [2, 11]: reduced tumor growth
- tumor volume at conclusion of the experiment [2, 11]: statistically significant effect on tumor volume
- tumor weight at conclusion of the experiment [2, 11]: marked reduction in tumor weight
- Fold-change in tumor volume vs d0 ([2]; RO, 0 days post-treatment initiation): 1
- Fold-change in tumor volume vs d0 ([2]; RO, 3 days post-treatment initiation): 0.66 and 0.95 and 1.12 and 1.34 and 1.68
- Fold-change in tumor volume vs d0 ([2]; RO, 7 days post-treatment initiation): 0.81 and 1.29 and 1.57 and 1.05 and 1.08
- Fold-change in tumor volume vs d0 ([2]; RO, 10 days post-treatment initiation): 0.74 and 2.21 and 2.36 and 1.14 and 1.44
- Fold-change in tumor volume vs d0 ([2]; RO, 14 days post-treatment initiation): 0.85 and 2.64 and 3.43 and 1.26 and 1.18
- Fold-change in tumor volume vs d0 ([2]; RO, 17 days post-treatment initiation): 1.43 and 3.89 and 4.46 and 1.56 and 1.13
- Tumor Take (%) ([3]; Day 7): 0%
- Tumor Take (%) ([3]; Day 10): 12.5%
- Tumor Growth (mm3) ([3]; Day 10, individual tumors): 10.7 mm3
- Tumor Take (%) ([3]; Day 13): 12.5%
- Tumor Growth (mm3) ([3]; Day 13, individual tumors): 7.7 mm3
- Tumor Take (%) ([3]; Day 16): 25%
- Tumor Growth (mm3) ([3]; Day 16, individual tumors): 9.4 mm3 and 8.5 mm3
- Tumor Take (%) ([3]; Day 20): 25%
- Tumor Growth (mm3) ([3]; Day 20, individual tumors): 7.4 mm3 and 10.1 mm3
- Tumor Take (%) ([3]; Day 23): 37.5%
- Tumor Growth (mm3) ([3]; Day 23, individual tumors): 8 mm3 and 10.9 mm3 and 9.7 mm3
- Tumor Take (%) ([3]; Day 28): 62.5%
- Tumor Growth (mm3) ([3]; Day 28, individual tumors): 9.8 mm3 (2×) and 10.8 mm3 and 10.9 mm3 and 11.6 mm3 and 8.7 mm3
- tumor volumes and weights on day 28 ([3]; PANC1 cells pre-treated 24 h with 20 µM, injected s.c. into nude mice): significantly reduced volumes and weights
- tumor take and growth ([3]; PANC1 cells pre-treated 24 h with 20 µM, injected s.c. into nude mice, 28 days): clear delay in tumor take and growth
- Tumor Weight ([3]; individual tumors): 0.1301 g and 0.0568 g and 0.1068 g and 0.0882 g and 0.0887 g and 0.1001 g
- RER, EE, locomotor activity, food and water intake vs untreated (C57Bl6 mice [4]; C57Bl6 mice, 1.4 mg/kg i.v.): no differences were observed
- DRINK (C57Bl6 mice [4]; Fig. S8B left graph, individual mice): 4.49 mL and 10.13 mL and 7.81 mL and 7.64 mL and 8.16 mL
- adverse effects on hematocrit parameters (NU-Foxn1nu nude mice [5]; [8]): no adverse effects
- Basophils (NU-Foxn1nu nude mice [5]; Intra-peritoneal): 0.41 109 cells/L and 0.45 109 cells/L and 0.47 109 cells/L and 0.86 109 cells/L
- Eosinophils (NU-Foxn1nu nude mice [5]; Intra-peritoneal): 0.45 109 cells/L and 0.33 109 cells/L and 0.19 109 cells/L and 0.47 109 cells/L
- Haemoglobin (NU-Foxn1nu nude mice [5]; Intra-peritoneal): 18.5 g/dL and 17.5 g/dL and 19.1 g/dL and 17.7 g/dL
- Hematocrit (NU-Foxn1nu nude mice [5]; Intra-peritoneal): 43.4% and 39.8% and 44.6%
- Lymphocytes (NU-Foxn1nu nude mice [5]; Intra-peritoneal): 4.49 109 cells/L and 2.36 109 cells/L and 3.04 109 cells/L and 4.43 109 cells/L
- MCH (NU-Foxn1nu nude mice [5]; Intra-peritoneal): 19.3 pg and 19.1 pg and 19.2 pg and 19.7 pg
- MCHC (NU-Foxn1nu nude mice [5]; Intra-peritoneal): 42.6 g/dL and 44 g/dL and 42.8 g/dL and 44.4 g/dL
- MCV (NU-Foxn1nu nude mice [5]; Intra-peritoneal): 45.3 fL and 43.5 fL and 44.8 fL and 44.2 fL
- MPV (NU-Foxn1nu nude mice [5]; Intra-peritoneal): 6.1 fL and 5.5 fL and 6 fL
- Monocytes (NU-Foxn1nu nude mice [5]; Intra-peritoneal): 1.17 109 cells/L and 0.96 109 cells/L and 0.45 109 cells/L and 3.1 109 cells/L
- Neutrophils (NU-Foxn1nu nude mice [5]; Intra-peritoneal): 4.24 109 cells/L and 2.95 109 cells/L and 1.59 109 cells/L and 5.08 109 cells/L
- RDW-CV (NU-Foxn1nu nude mice [5]; Intra-peritoneal): 13.9% and 14.8% and 14.3%
- Basophils (NU-Foxn1nu nude mice [5]; Retro-orbital): 0.43 109 cells/L and 0.62 109 cells/L and 0.64 109 cells/L
- Eosinophils (NU-Foxn1nu nude mice [5]; Retro-orbital): 0.21 109 cells/L and 0.31 109 cells/L and 0.34 109 cells/L
- Haemoglobin (NU-Foxn1nu nude mice [5]; Retro-orbital): 18.3 g/dL
- Hematocrit (NU-Foxn1nu nude mice [5]; Retro-orbital): 42.9% and 41.4% and 42.8%
- Lymphocytes (NU-Foxn1nu nude mice [5]; Retro-orbital): 2.46 109 cells/L and 3.66 109 cells/L and 5.37 109 cells/L
- MCH (NU-Foxn1nu nude mice [5]; Retro-orbital): 19 pg and 20.5 pg and 19.2 pg
- MCHC (NU-Foxn1nu nude mice [5]; Retro-orbital): 42.6 g/dL and 44.2 g/dL and 42.9 g/dL
- MCV (NU-Foxn1nu nude mice [5]; Retro-orbital): 44.5 fL and 46.3 fL and 44.8 fL
- MPV (NU-Foxn1nu nude mice [5]; Retro-orbital): 5.6 fL and 6.1 fL and 5.2 fL
- Monocytes (NU-Foxn1nu nude mice [5]; Retro-orbital): 0.91 109 cells/L and 0.87 109 cells/L and 0.47 109 cells/L
- Neutrophils (NU-Foxn1nu nude mice [5]; Retro-orbital): 3.45 109 cells/L and 3.24 109 cells/L and 2.71 109 cells/L
- RDW-CV (NU-Foxn1nu nude mice [5]; Retro-orbital): 14.2% and 14.7% and 14.6%
- adverse effects on urine analyses (NU-Foxn1nu nude mice [6]; [8]): no adverse effects
- Creatinine in Urine (NU-Foxn1nu nude mice [6]; [12]): 59 mg/dL
- Protein/Creatinine in Urine (NU-Foxn1nu nude mice [6]; [12]): 8814
- Glucose in Urine (NU-Foxn1nu nude mice [6]; [13]): 40 mg/dL and 20 mg/dL
- Protein in Urine (NU-Foxn1nu nude mice [6]; [13]): 80 mg/dL and 52 mg/dL
- Glucose in Urine (NU-Foxn1nu nude mice [6]; Retro-Orbital group (I5 1.4 mg/kg), single mice): 30 mg/dL
- Creatinine in Urine (NU-Foxn1nu nude mice [6]; [14]): 56 mg/dL and 57 mg/dL and 61 mg/dL
- Protein/Creatinine in Urine (NU-Foxn1nu nude mice [6]; [14]): 10536 and 9221 and 16383
- adverse effects on weight and neurological perturbations (Irwin's test) (C57Bl6 mice [7]): no adverse effects
